Where two headings read alike, the source gives them in different places. Marks after values point to notes of the source that are not given here. Each block holds one compound with its values, some of them ahead of it.
How the values were obtained:
[1] = Pharmacokinetic study in Renca-luc tumor-bearing BALB/c mice; format: in vivo, mouse; conditions: for Tmax: read-out: Tmax (converted)
Procedure: Plasma and tissues were harvested at various time points (20 min to 16 h) from Renca-luc tumor-bearing BALB/c male mice following the administration of OXi8007 IP. Mice treated with 250 mg/kg were sacrificed at 20 min (n = 3), 1 h (n = 4), 2 h (n = 4), 4 h (n = 4), 8 h (n = 4), and 16 h (n = 4). Mice were anesthetized, exsanguinated, the tissues were blotted, and then they were weighed and frozen in liquid nitrogen. Homogenized plasma and tissue samples were extracted with acetonitrile with a bead mill; internal standard (CA4 or tri-labeled ^13C-OXi8006) was added to each sample to reach a final concentration of 10 ppb. Samples were centrifuged twice to remove precipitated proteins (16,260× g for 10 min at 4 °C). Clear supernatant was transferred into MS vials, and formic acid was added to a final concentration of 0.1% for LC-MS analysis. […] Mobile phase A consisted of 0.1% v/v formic acid in water, and mobile phase B was acetonitrile, which was mixed by the binary pump with an elution gradient at a flow rate of 0.6 mL/min. Data were analyzed using Xcalibur 4.6 software based on exact masses, and Phoenix WinNonlin 8.5.0 software was used to determine the pharmacokinetic parameters based on a non-compartmental model.

Renca cells = assay: Renca sulforhodamine B (SRB) assay, cell growth inhibition; format: cell-based; conditions: Mus musculus; Renca cells, SRB, 48 h treatment; read-out: IC50
Procedure: (§1) In two independent trials of Renca and Renca-luc cells were plated in triplicate at 8000 cells/well into 96-well plates and incubated for 24 h at 37 °C in a humidified incubator with 5% CO2 followed by a 48 h treatment period at ten-fold dilutions of the drug.

Renca-luc cells = assay: Renca-luc sulforhodamine B (SRB) assay, cell growth inhibition; format: cell-based; conditions: Mus musculus; Renca-luc cells, SRB, 48 h treatment; read-out: IC50
Procedure: as §1

[2] = Blood pressure assessment (CODA system); format: in vivo, mouse
Procedure: Blood pressure was measured using a CODA system (Kent Scientific, Torrington, CT, USA) on 5 adult male BALB/c mice. Mice were anesthetized with 2% isoflurane in oxygen at 1 dm^3/min and placed on the CODA IR heating pad with a feedback rectal temperature probe and nosecone to maintain anesthesia. An occlusion cuff and VPR cuff were placed on the tail. The baseline measurement was recorded over 30 min, then OXi8007 (250 mg/kg or 325 mg/kg) was administered IP and the blood pressure measurement resumed for 45 min. As positive and negative controls, hydralazine (1 mg/kg) or saline, respectively, were injected IP.

[3] = male, BALB/c, mouse, in vivo, ip, 250 mg/kg, brain, after OXi8007 250 mg/kg IP
[4] = male, BALB/c, mouse, in vivo, ip, 250 mg/kg, heart, after OXi8007 250 mg/kg IP
[5] = male, BALB/c, mouse, in vivo, ip, 250 mg/kg, left kidney, after OXi8007 250 mg/kg IP
[6] = male, BALB/c, mouse, in vivo, ip, 250 mg/kg, liver, after OXi8007 250 mg/kg IP
[7] = male, BALB/c, mouse, in vivo, ip, 250 mg/kg, lungs, after OXi8007 250 mg/kg IP
[8] = male, BALB/c, mouse, in vivo, ip, 250 mg/kg, plasma, after OXi8007 250 mg/kg IP
[9] = male, BALB/c, mouse, in vivo, ip, 250 mg/kg, spleen, after OXi8007 250 mg/kg IP
[10] = male, BALB/c, mouse, in vivo, ip, 250 mg/kg, tumor and right kidney, after OXi8007 250 mg/kg IP
[11] = male, BALB/c, mouse, ip, glucuronide metabolite, brain, after OXi8007 250 mg/kg
[12] = male, BALB/c, mouse, ip, glucuronide metabolite, heart, after OXi8007 250 mg/kg
[13] = male, BALB/c, mouse, ip, glucuronide metabolite, left kidney, after OXi8007 250 mg/kg
[14] = male, BALB/c, mouse, ip, glucuronide metabolite, liver, after OXi8007 250 mg/kg
[15] = male, BALB/c, mouse, ip, glucuronide metabolite, lungs, after OXi8007 250 mg/kg
[16] = male, BALB/c, mouse, ip, glucuronide metabolite, plasma, after OXi8007 250 mg/kg
[17] = male, BALB/c, mouse, ip, glucuronide metabolite, spleen, after OXi8007 250 mg/kg
[18] = male, BALB/c, mouse, ip, glucuronide metabolite, tumor, after OXi8007 250 mg/kg

Compound: COc1ccc2c(C(=O)c3cc(OC)c(OC)c(OC)c3)c(-c3ccc(OC)c(O)c3)[nH]c2c1 [OXi8006]
AUC ([1]; brain, after OXi8007 250 mg/kg IP): 0.54 ng·h/mg | AUC ([1]; heart, after OXi8007 250 mg/kg IP): 9.04 ng·h/mg | AUC ([1]; left kidney, after OXi8007 250 mg/kg IP): 8.72 ng·h/mg | AUC ([1]; liver, after OXi8007 250 mg/kg IP): 18.19 ng·h/mg | AUC ([1]; lungs, after OXi8007 250 mg/kg IP): 9.45 ng·h/mg | half-life [1, 3]: 1.71 h | Cmax ([1]; male, BALB/c, mouse, in vivo, ip, 250 mg/kg, brain, after OXi8007 250 mg/kg IP, read-out: Cmax): 220 ng/g | Tmax [1, 3]: 0.333 h | half-life [1, 4]: 2.02 h | Cmax ([1]; male, BALB/c, mouse, in vivo, ip, 250 mg/kg, heart, after OXi8007 250 mg/kg IP, read-out: Cmax): 5310 ng/g | Tmax [1, 4]: 0.333 h | half-life [1, 5]: 1.73 h | Cmax ([1]; male, BALB/c, mouse, in vivo, ip, 250 mg/kg, left kidney, after OXi8007 250 mg/kg IP, read-out: Cmax): 5860 ng/g | Tmax [1, 5]: 0.333 h | half-life [1, 6]: 2.25 h | Cmax ([1]; male, BALB/c, mouse, in vivo, ip, 250 mg/kg, liver, after OXi8007 250 mg/kg IP, read-out: Cmax): 9160 ng/g | Tmax [1, 6]: 0.333 h | half-life [1, 7]: 2.56 h | Cmax ([1]; male, BALB/c, mouse, in vivo, ip, 250 mg/kg, lungs, after OXi8007 250 mg/kg IP, read-out: Cmax): 4180 ng/g | Tmax [1, 7]: 0.333 h | half-life [1, 8]: 1.98 h | half-life ([1]; male, BALB/c, mouse, in vivo, ip, 250 mg/kg, plasma, after OXi8007 250 mg/kg IP, Renca-luc tumor-bearing BALB/c mice): 1.99 h | Cmax ([1]; male, BALB/c, mouse, in vivo, ip, 250 mg/kg, plasma, after OXi8007 250 mg/kg IP, read-out: Cmax): 29000 ng/mL | Tmax [1, 8]: 0.333 h | half-life [1, 9]: 1.72 h | Cmax ([1]; male, BALB/c, mouse, in vivo, ip, 250 mg/kg, spleen, after OXi8007 250 mg/kg IP, read-out: Cmax): 4450 ng/g | Tmax [1, 9]: 0.333 h | half-life [1, 10]: 4.23 h | Cmax ([1]; male, BALB/c, mouse, in vivo, ip, 250 mg/kg, tumor and right kidney, after OXi8007 250 mg/kg IP, read-out: Cmax): 2390 ng/g | Tmax [1, 10]: 1 h | AUC ([1]; plasma, after OXi8007 250 mg/kg IP, zero to last quantifiable concentration): 47 ^# h × ng/µL | AUC ([1]; spleen, after OXi8007 250 mg/kg IP): 9.88 ng·h/mg | AUC ([1]; tumor and right kidney, after OXi8007 250 mg/kg IP): 10.24 ng·h/mg

Compound: COc1ccc(/C=C\c2cc(OC)c(OC)c(OC)c2)cc1O [CA4, combretastatin A-4, reference compound]
IC50 (Renca cells): 48 ± 2 nM | IC50 (Renca-luc cells): 109 ± 23 nM

Compound: NNc1nncc2ccccc12 [hydralazine, reference compound]
Hypotension (Δ BP) ([2]; 1 mg/kg): ~ 35 mmHg | Drop in diastolic blood pressure (Δ) ([2]; 1 mg/kg IP): 31 mmHg | Drop in mean blood pressure (Δ) ([2]; 1 mg/kg IP): 34 mmHg | Drop in systolic blood pressure (Δ) ([2]; 1 mg/kg IP): 40 mmHg | Drop in blood pressure ([2]; 1 mg/kg IP, positive control): about 30%

Cmax ([1]; glucuronide metabolite, brain, counts per tissue sample (40 mg), after OXi8007 250 mg/kg): 0.95 counts × 10^−6 | AUC ([1]; glucuronide metabolite, brain, after OXi8007 250 mg/kg): 4.13 h × counts × 10^−6 | Cmax ([1]; glucuronide metabolite, heart, counts per tissue sample (40 mg), after OXi8007 250 mg/kg): 9.8 counts × 10^−6 | AUC ([1]; glucuronide metabolite, heart, after OXi8007 250 mg/kg): 24.52 h × counts × 10^−6 | Cmax ([1]; glucuronide metabolite, left kidney, counts per tissue sample (40 mg), after OXi8007 250 mg/kg): 87.2 counts × 10^−6 | AUC ([1]; glucuronide metabolite, left kidney, after OXi8007 250 mg/kg): 180.6 h × counts × 10^−6 | Cmax ([1]; glucuronide metabolite, liver, counts per tissue sample (40 mg), after OXi8007 250 mg/kg): 28.23 counts × 10^−6 | AUC ([1]; glucuronide metabolite, liver, after OXi8007 250 mg/kg): 128.7 h × counts × 10^−6 | Cmax ([1]; glucuronide metabolite, lungs, counts per tissue sample (40 mg), after OXi8007 250 mg/kg): 20.87 counts × 10^−6 | AUC ([1]; glucuronide metabolite, lungs, after OXi8007 250 mg/kg): 69.33 h × counts × 10^−6 | Cmax ([1]; glucuronide metabolite, plasma, counts per mL, no precise calibration, after OXi8007 250 mg/kg): 1266 counts × 10^−6 | AUC ([1]; glucuronide metabolite, plasma, no precise calibration, after OXi8007 250 mg/kg): 3490 h × counts × 10^−6 | Cmax ([1]; glucuronide metabolite, spleen, counts per tissue sample (40 mg), after OXi8007 250 mg/kg): 6.33 counts × 10^−6 | AUC ([1]; glucuronide metabolite, spleen, after OXi8007 250 mg/kg): 18.39 h × counts × 10^−6 | Cmax ([1]; glucuronide metabolite, tumor, counts per tissue sample (40 mg), after OXi8007 250 mg/kg): 11.65 counts × 10^−6 | AUC ([1]; glucuronide metabolite, tumor, after OXi8007 250 mg/kg): 118.22 h × counts × 10^−6 | half-life [1, 11]: 1.15 h | Tmax [1, 11]: 1 h | half-life [1, 12]: 1.61 h | Tmax [1, 12]: 1 h | half-life [1, 13]: 3.75 h | Tmax [1, 13]: 1 h | half-life [1, 14]: 3.37 h | Tmax [1, 14]: 1 h | half-life [1, 15]: 2.05 h | Tmax [1, 15]: 1 h | half-life [1, 16]: 1.95 h | Tmax [1, 16]: 1 h | half-life [1, 17]: 2.2 h | Tmax [1, 17]: 1 h | half-life [1, 18]: 5.87 h | Tmax [1, 18]: 4 h
Compound: COc1ccc2c(C(=O)c3cc(OC)c(OC)c(OC)c3)c(-c3ccc(OC)c(O[C@@H]4O[C@H](C(=O)O)[C@@H](O)[C@H](O)[C@H]4O)c3)[nH]c2c1 [OXi8006 Glucuronide]
